Assay: clinical trial: lipoprotein profiles in blood serum of patients treated with a PDE4 inhibitor (ultracentrifugation density separation)
Format: in vivo, human
Description: In a clinical trial, five patients were treated by daily doses of a PDE4 inhibitor. As an exemplifying and representative compound, roflumilast was used as the PDE4 inhibitor. Lipoprotein profiles were measured at start of the therapy (time T0), four weeks after start (T1) and eight weeks after start (T2). Treatment was further monitored thereafter. In an embodiment, a first unit dose ([…]) was administered orally every second day for a period of four weeks, and subsequently the dose was increased to a unit of […] per day until a time of 8 weeks.
For analysing and measuring the lipoprotein profiles and thus the relative concentrations and levels of lipoprotein fractions and the cholesterol and triglyceride amounts per lipoprotein, 10 ml venous blood was drawn at the indicated time Points. Lipoprotein profiles and fractions were determined using density separation by means of ultra-centrifugation and subsequent determination of the lipoprotein components (Baumstark et al., Biochem. Biophys. Acta—Protein Structure and Molecular Enzymology 1037, 48-57 (1990); Frey et al., Eur. J. Appl, Physiol. 60, 441-444 (1990)). The components and parameters determined include cholesterol and triglyceride proportions of HDL and LDL, and of sub-fractions LDL-1 to LDL-6, and HDL-2a-2b and -3. Statistical analysis of the results was carried out by SPSS 23.0.

[1] = five patients, oral roflumilast, T1 (4 weeks) and T2 (8 weeks) compared to T0, blood serum
[2] = five patients, oral roflumilast, blood serum

Structure (SMILES): O=C(Nc1c(Cl)cncc1Cl)c1ccc(OC(F)F)c(OCC2CC2)c1 [roflumilast, 3-cyclopropylmethoxy-4-difluoromethoxy-N-(3,5-dichloropyrid-4-yl)-benzamide]
- persistence of the reduction of LDL-C (after 12 weeks (not shown)): maintained over longer time periods
- persistence of the reduction of LDL-TG (after 12 weeks (not shown)): maintained over longer time periods
- change of LDL-TG [1]: substantially reduced
- reduction of LDL-C [1]: approximately 30 mg/dl
- change of HDL-C [2]: Slight reductions
- change of HDL-TG [2]: Slight reductions

Source: patent US20180318271A1, “Use of PDE4 Inhibitors for the Prophylaxis and/or Therapy of Dyslipoproteinaemia and Related Disorders” (Albert-Ludwigs-Universität Freiburg, priority 2015, published 2018)
